In paper PMC12276035, “Novel Para‐Phenylenediamine‐Based Derivatives as Receptor Tyrosine Kinase‐like Orphan Receptor 1 (ROR1) Inhibitors: An In Vitro Preliminary Characterization” (Chemmedchem, 2025):

Assays:
[1] = molecular target: T1, ROR1 kinase domain (Homo sapiens, UniProt Q01973); experiment: SPR assay on ROR1 kinase domain; type: binding; settings: SPR, KD ± SD, 0 to 100 μM, 25 °C; n.b. = no binding; read-out: Kinase domain KD
T1 construct: recombinant human ROR1 protein (aa 453‐783, His&GST Tag); His; GST; purchased Elabscience
T1 sequence (Q01973 453-783): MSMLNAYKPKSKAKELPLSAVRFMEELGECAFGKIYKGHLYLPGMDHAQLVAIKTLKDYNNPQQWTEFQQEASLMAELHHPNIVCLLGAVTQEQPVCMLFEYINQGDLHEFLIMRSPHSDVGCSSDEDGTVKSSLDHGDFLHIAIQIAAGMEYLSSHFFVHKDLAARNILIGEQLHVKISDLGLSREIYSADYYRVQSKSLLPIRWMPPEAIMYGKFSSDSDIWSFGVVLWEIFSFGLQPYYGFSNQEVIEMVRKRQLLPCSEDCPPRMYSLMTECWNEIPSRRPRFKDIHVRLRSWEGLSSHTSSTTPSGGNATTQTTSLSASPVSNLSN
Method: We performed molecular docking experiments to explore the binding mode of novel derivatives using the crystallographic structure of the protein co‐complexed with ponatinib, a known inhibitor of ROR1 (PDB code: 6TU9).^[ [30] ^] […] To evaluate the affinity of the synthesized molecules (10, 13, 14, 17–21, 26–29) for the protein counterpart, SPR assay was performed against kinase domain ROR1. Protein immobilization was achieved using the amide coupling method, and the molecules were tested at 10 different concentrations, ranging from 0 to 100 μM. Ponatinib was used as a positive control^[ [30] ^] (Table 1 ).
SPR spectroscopy analyses were conducted to evaluate the binding affinity of the synthesized compounds against ROR1 receptor using a Biacore T200 optical biosensor equipped with research‐grade CM5 sensor chips (Cytiva, Marlborough, USA). ROR1 kinase domain was immobilized on the CM5 sensor chip surface following standard amine‐coupling protocols. Specifically, kinasic domain was immobilized at pH 4.5 10 mM CH3COONa using a flow rate of 10 μL min^−1, achieving a density of around 20 kRU.
For the experiments, surfaces of ROR1, along with an unmodified reference surface, were prepared for simultaneous analyses. […] The compounds were injected in a series of concentrations (1:2 dilution, 10 different concentrations), spanning from 0 to 100 μM. The concentration series were prepared in 96‐well plates. SPR experiments were conducted at 25 °C, with a flow rate of 20 μL min^−1, allowing for 90 s of association monitoring and 400 s of dissociation monitoring. Changes in mass, reflective of the binding response, were recorded as resonance units (RU). K D values were determined using the Biaevaluation software performing a global fit of the double‐referenced association and dissociation data to a 1:1 interaction model^[ [43] ^] (see Figure S38, Supporting Information).

[2] = molecular target: T2, ROR1 (Homo sapiens, UniProt Q01973); experiment: Cellular Thermal Shift Assay (CETSA); type: cell-based; settings: JeKo‐1, 40 μM, 2 h, 45–58 °C
T2 construct: endogenous in cells; host or cells: JeKo-1
Method: To further ascertain the binding between 17 and ROR1, we performed CETSA, a cell‐based test allowing us to carry out both qualitative and quantitative analyses of the direct interaction of a drug candidate to a target protein inside a cell.^[ [34] ^] CETSA assay was performed on JeKo‐1 cell line incubated with 17 for 2 h. After the treatment, ROR1 levels were evaluated by western blotting analysis. […] These findings provide strong evidence that the inhibitor effectively engages with ROR1 in cells, further supporting its mechanism of action (Figure 5 ). Ponatinib was used as a positive control (Figure S40, Supporting Information).
Figure 5 CETSA identifies ROR1 protein in the binding with 17 in JeKo‐1 cells. A) CETSA western blots and B) corresponding quantitative analysis of band intensity. […] Densitometry‐based quantification of western blotting signals was calculated by first normalizing to α‐tubulin levels in individual samples. […]
The CETSA is particularly suitable for identifying the interaction between ligands and their protein targets. […] The change in the thermal stability of the target protein is measured by the amount of residual soluble protein at different temperatures, comparing treated samples with control samples.^[ [32] ^] […] The amount of the soluble target protein was assessed by western blotting analysis.

T2 sequence (Q01973 30-937): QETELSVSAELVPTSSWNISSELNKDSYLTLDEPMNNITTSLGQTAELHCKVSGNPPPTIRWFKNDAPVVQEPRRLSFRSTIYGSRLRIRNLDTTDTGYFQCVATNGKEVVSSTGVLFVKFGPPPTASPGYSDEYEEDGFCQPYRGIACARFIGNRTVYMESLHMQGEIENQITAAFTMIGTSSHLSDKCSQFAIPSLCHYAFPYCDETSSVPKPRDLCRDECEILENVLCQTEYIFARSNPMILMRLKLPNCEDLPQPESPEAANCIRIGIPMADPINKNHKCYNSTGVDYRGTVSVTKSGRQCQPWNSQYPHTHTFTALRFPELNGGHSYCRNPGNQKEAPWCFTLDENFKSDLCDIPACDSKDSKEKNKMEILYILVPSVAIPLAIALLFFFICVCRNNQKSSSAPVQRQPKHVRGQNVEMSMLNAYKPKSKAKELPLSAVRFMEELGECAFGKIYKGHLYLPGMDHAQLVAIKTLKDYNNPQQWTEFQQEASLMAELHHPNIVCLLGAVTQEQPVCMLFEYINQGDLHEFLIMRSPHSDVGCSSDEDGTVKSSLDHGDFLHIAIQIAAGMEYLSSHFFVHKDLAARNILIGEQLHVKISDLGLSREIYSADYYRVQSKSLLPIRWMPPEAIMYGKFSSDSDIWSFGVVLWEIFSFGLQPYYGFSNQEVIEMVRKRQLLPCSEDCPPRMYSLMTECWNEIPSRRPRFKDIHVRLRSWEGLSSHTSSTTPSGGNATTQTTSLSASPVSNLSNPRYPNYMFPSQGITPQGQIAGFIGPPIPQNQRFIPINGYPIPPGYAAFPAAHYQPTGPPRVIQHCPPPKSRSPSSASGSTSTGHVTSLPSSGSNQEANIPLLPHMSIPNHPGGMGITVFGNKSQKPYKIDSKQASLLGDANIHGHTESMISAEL

- Kd [1]: 12.1 ± 2.68 µM
- ROR1 thermal stabilization [2]: strong stabilization
Compound: O=C(NCc1ccc(-c2ccccc2)cc1)Nc1ccc(NCC2CCNCC2)cc1C(F)(F)F [Compound 17]
